In US6548540B2, “Method of treating cancer using dithiocarbamate derivatives” (Charlotte-Mecklenburg Hospital Authority, priority 1998, dated 2003):
Entries after “also recorded” stand apart in the source; their conditions may differ.

Tests used:
[1] = biological target: T1, transcription factor binding to CRE (ATF2 containing complex II) (Homo sapiens, UniProt P15336); experiment: EMSA, agents added directly to binding reaction; conditions: for transcription factor binding to CRE: DTT 2.5 mM; for transcription factor binding to CRE, effect with GSH instead of DTT: GSH 3.0 mM as reducing agent
T1 construct: endogenous in cells; host or cells: M1619 human melanoma cells, crude nuclear protein extract
T1 sequence (P15336 1-505): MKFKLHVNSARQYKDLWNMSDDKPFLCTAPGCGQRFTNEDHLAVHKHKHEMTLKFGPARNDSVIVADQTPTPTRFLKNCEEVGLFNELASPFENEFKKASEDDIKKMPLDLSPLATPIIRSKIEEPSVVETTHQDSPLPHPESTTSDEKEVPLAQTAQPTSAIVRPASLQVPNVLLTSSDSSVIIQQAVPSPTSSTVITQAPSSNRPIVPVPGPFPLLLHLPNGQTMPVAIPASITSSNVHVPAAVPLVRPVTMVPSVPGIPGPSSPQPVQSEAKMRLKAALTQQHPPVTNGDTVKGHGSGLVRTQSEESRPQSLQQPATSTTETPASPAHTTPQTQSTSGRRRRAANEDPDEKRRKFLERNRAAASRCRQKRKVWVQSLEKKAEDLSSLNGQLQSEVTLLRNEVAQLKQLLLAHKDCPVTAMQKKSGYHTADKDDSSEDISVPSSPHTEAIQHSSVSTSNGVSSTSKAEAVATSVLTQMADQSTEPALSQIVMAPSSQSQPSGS
Method: This dose was chosen to approximate the steady state plasma and tissue concentrations of drug in human subjects on chronic therapy with this agent. Disulfiram was solubilized in dimethylsulfoxide (DMSO) so that the final concentration of DMSO was less than 0.3-0.5%. Equal volumes of DMSO were added to control experiments. Nuclear protein was harvested and electrophoretic mobility gel shift assays were performed using DNA consensus binding sequence for the cyclic-AMP responsive element (CRE) as outlined below. […] EMSAs were performed using consensus oligonucleotides ([NT] and 3'-[NT]5') for the cyclic-AMP responsive element CRE (ProMega, Madison, Wis.), end-labeled by phosphorylation with [γ^32P]-ATP and T4 polynucleotide kinase. DNA-protein binding reactions were performed with 2 μg of nuclear protein (as determined by the Pierce method) and 30-80,000 cpm of ^32P-end-labelled double-stranded DNA probe in 10 mM Tris-HCl, pH 7.5, 50 mM NaCl, 0.5 mM EDTA, 0.5 mM DTT (except where indicated), 1 mM MgCl2, 50 μg/ml poly dI-dC, and 4% glycerol. All components of the binding reaction with the exception of labeled probe were combined and incubated at room temperature for 10 minutes before addition of labeled probe and incubation for an additional 20 minutes. To determine if inhibition of transcription factor binding to CRE could be attributed to direct transcription factor modification by disulfiram and copper, we studied the effect of adding each agent directly to the binding reaction performed with nuclear protein from untreated […] cells. Therein electrophoretic mobility shift assays (EMSAs) were performed showing that addition of disulfiram plus copper to the binding reaction reduces DNA binding to CRE. […] In lanes 1-5, DTT (2.5 mM) was added to the binding reaction as a reducing agent, whereas in lane 6-9, GSH (3.0 mM) was used.

[2] = system: transcription factor binding to CRE (cyclic AMP response element); experiment: EMSA of nuclear protein from treated M1619 cells, binding to CRE; assay type: cell-based, human
Method: This dose was chosen to approximate the steady state plasma and tissue concentrations of drug in human subjects on chronic therapy with this agent. Disulfiram was solubilized in dimethylsulfoxide (DMSO) so that the final concentration of DMSO was less than 0.3-0.5%. Equal volumes of DMSO were added to control experiments. Nuclear protein was harvested and electrophoretic mobility gel shift assays were performed using DNA consensus binding sequence for the cyclic-AMP responsive element (CRE) as outlined below. […] Nuclear protein was isolated and DNA binding reactions were performed as previously described in detail (See, […], et al., “Dehydroepiandrosterone and analogs inhibit DNA binding of AP-1 and airway smooth muscle proliferation,” J. Pharmacol. Exper. Ther. 285:[…] (1998); T. Kennedy, et al., “Copper-dependent inflammation and nuclear factor-κB activation by particulate air pollution,” Am. J. Respir. Cell Mol. Biol. 19:366-378 (1998)). Monolayers were washed twice in cold DPBS and equilibrated 10 minutes on ice with 0.7 ml cold cytoplasmic extraction buffer, CEB (10 mM Tris, pH 7.9, 60 mM KCl, 1 mM EDTA, 1 mM DTT) with protease inhibitors, PI (1 mM Pefabloc, 50 μg/ml antipain, 1 μg/ml leupeptin, 1 μg/ml pepstatin, 40 μg/ml bestatin, 3 μg/ml E-64 and 100 μg/ml chymostatin). The detergent Nonidet P-40 (NP-40) was added to a final concentration of 0.1% and cells were dislodged with a cell scraper. Nuclei were pelleted by centrifugation and washed with CEB/PI. […] DNA-protein binding reactions were performed with 2 μg of nuclear protein (as determined by the Pierce method) and 30-80,000 cpm of ^32P-end-labelled double-stranded DNA probe in 10 mM Tris-HCl, pH 7.5, 50 mM NaCl, 0.5 mM EDTA, 0.5 mM DTT (except where indicated), 1 mM MgCl2, 50 μg/ml poly dI-dC, and 4% glycerol. […] Gels were dried and analyzed by autoradiography at -80° C. using an image intensifier screen. […]

transcription factor binding to CRE ([1]; disulfiram 5 μM alone added to binding reaction): reduced
transcription factor binding to CRE, effect with GSH instead of DTT ([1]; disulfiram 5 μM alone): more pronounced
transcription factor binding to CRE, effect with GSH instead of DTT ([1]; disulfiram 5 μM and 1.6 μM CuSO4): more pronounced
transcription factor binding to CRE ([1]; disulfiram 5 μM and 1.6 μM CuSO4 added to binding reaction): reduced
Compound: CCN(CC)C(=S)SSC(=S)N(CC)CC [Disulfiram, tetraethylthiuram disulfide]
DNA-binding to CRE ([2]; 5 μM disulfiram alone, treated cells): slightly reduced
transcription factor binding to CRE ([2]; 5 μM disulfiram and 1.6 μM cupric sulfate, cells treated 6, 12 or 24 hour): substantially interrupts; also recorded: eliminated
DNA binding of the upper ATF-2 containing complex II (densitometry) ([2]; disulfiram 5 μM plus CuSO4 1.6 μM, 8 hours, n=4): by half
